Data taken from ChEMBL document CHEMBL1201862, “PubChem BioAssay data set” (2004).
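1) Cells in 96-well plates. 2) Compound, 48 h, 5 concentrations. 3) Linear interpolation between surrounding doses. 4) Unreached endpoint = highest concentration. GI50 = concentration required for 50% inhibition of growth.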 Calls of active or inactive are those of the source. Cut-off read from the data, not from the text of the source: active = GI50 up to about 1.1 µM and inactive = higher.

Key:
Assay in all cases: DTP human tumour cell line panel, 48 h
KM12 = tested on: KM12
DLD-1 = tested on: DLD-1
HOP-92 = tested on: HOP-92
DMS-114 = tested on: DMS-114
SK-MEL-5 = tested on: SK-MEL-5
SNB-78 = tested on: SNB-78
SF-268 = tested on: SF-268
SNB-75 = tested on: SNB-75
UO-31 = tested on: UO-31
SW-620 = tested on: SW-620
HT-29 = tested on: HT-29
A498 = tested on: A498
DMS-273 = tested on: DMS-273
U-251 = tested on: U-251
SR = tested on: SR
SK-OV-3 = tested on: SK-OV-3
SK-MEL-28 = tested on: SK-MEL-28
NCI-H226 = tested on: NCI-H226
RXF 393 = tested on: RXF 393
HCT-116 = tested on: HCT-116
UACC-257 = tested on: UACC-257
TK-10 = tested on: TK-10
SF-539 = tested on: SF-539
K562 = tested on: K562
SNB-19 = tested on: SNB-19
HL-60 = tested on: HL-60
NCI-H522 = tested on: NCI-H522
M19-MEL = tested on: M19-MEL
SN12C = tested on: SN12C
Malme-3M = tested on: Malme-3M
LXFL 529 = tested on: LXFL 529
SK-MEL-2 = tested on: SK-MEL-2
786-0 = tested on: 786-0
UACC-62 = tested on: UACC-62
OVCAR-5 = tested on: OVCAR-5
IGROV-1 = tested on: IGROV-1
RPMI-8226 = tested on: RPMI-8226
HOP-62 = tested on: HOP-62
LOX IMVI = tested on: LOX IMVI
A549 = tested on: A549
OVCAR-8 = tested on: OVCAR-8
CCRF-CEM = tested on: CCRF-CEM
MOLT-4 = tested on: MOLT-4
EKVX = tested on: EKVX
CAKI-1 = tested on: CAKI-1
OVCAR-3 = tested on: OVCAR-3
SF-295 = tested on: SF-295
NCI-H23 = tested on: NCI-H23
KM-20L2 = tested on: KM-20L2
COLO 205 = tested on: COLO 205
HCC 2998 = tested on: HCC 2998
ACHN = tested on: ACHN
NCI-H460 = tested on: NCI-H460
M14 = tested on: M14
XF498 = tested on: XF498
OVCAR-4 = tested on: OVCAR-4
HCT-15 = tested on: HCT-15

## CC1=CP(=O)(OC(C)C)CC(C)=C1Cl (stereo unspecified)
KM12
  GI50: > 100 µM (inactive)
DLD-1
  GI50: > 100 µM (inactive)
HOP-92
  GI50: > 100 µM (inactive)
DMS-114
  GI50: > 100 µM (inactive)
SK-MEL-5
  GI50: > 100 µM (inactive)
SNB-78
  GI50: > 100 µM (inactive)
SF-268
  GI50: 82.6 µM (inactive)
SNB-75
  GI50: > 100 µM (inactive)
UO-31
  GI50: > 100 µM (inactive)
SW-620
  GI50: 70.5 µM (inactive)
HT-29
  GI50: 64.4 µM (inactive)
A498
  GI50: > 100 µM (inactive)
DMS-273
  GI50: 98.4 µM (inactive)
U-251
  GI50: > 100 µM (inactive)
SR
  GI50: 41.1 µM (inactive)
SK-OV-3
  GI50: > 100 µM (inactive)
SK-MEL-28
  GI50: > 100 µM (inactive)
NCI-H226
  GI50: > 100 µM (inactive)
RXF 393
  GI50: > 100 µM (inactive)
HCT-116
  GI50: > 100 µM (inactive)
UACC-257
  GI50: > 100 µM (inactive)
TK-10
  GI50: > 100 µM (inactive)
SF-539
  GI50: 95.1 µM (inactive)
K562
  GI50: > 100 µM (inactive)
SNB-19
  GI50: > 100 µM (inactive)
HL-60
  GI50: > 100 µM (inactive)
NCI-H522
  GI50: 52.6 µM (inactive)
M19-MEL
  GI50: > 100 µM (inactive)
SN12C
  GI50: > 100 µM (inactive)
Malme-3M
  GI50: > 100 µM (inactive)
LXFL 529
  GI50: > 100 µM (inactive)
SK-MEL-2
  GI50: > 100 µM (inactive)
786-0
  GI50: > 100 µM (inactive)
UACC-62
  GI50: > 100 µM (inactive)
OVCAR-5
  GI50: > 100 µM (inactive)
IGROV-1
  GI50: > 100 µM (inactive)
RPMI-8226
  GI50: 94.8 µM (inactive)
HOP-62
  GI50: > 100 µM (inactive)
LOX IMVI
  GI50: > 100 µM (inactive)
A549
  GI50: > 100 µM (inactive)
OVCAR-8
  GI50: > 100 µM (inactive)
CCRF-CEM
  GI50: 34.4 µM (inactive)
MOLT-4
  GI50: 32.7 µM (inactive)
EKVX
  GI50: > 100 µM (inactive)
CAKI-1
  GI50: > 100 µM (inactive)
OVCAR-3
  GI50: > 100 µM (inactive)
SF-295
  GI50: > 100 µM (inactive)
NCI-H23
  GI50: > 100 µM (inactive)
KM-20L2
  GI50: > 100 µM (inactive)
COLO 205
  GI50: > 100 µM (inactive)
HCC 2998
  GI50: > 100 µM (inactive)
ACHN
  GI50: > 100 µM (inactive)
NCI-H460
  GI50: > 100 µM (inactive)
M14
  GI50: 51.1 µM (inactive)

## Nn1c(=O)n(Cc2ccccc2)n(-c2ccccc2)c1=O
KM12
  GI50: > 100 µM (inactive)
DLD-1
  GI50: > 100 µM (inactive)
HOP-92
  GI50: > 100 µM (inactive)
SK-MEL-5
  GI50: > 100 µM (inactive)
SNB-78
  GI50: > 100 µM (inactive)
SF-268
  GI50: > 100 µM (inactive)
SNB-75
  GI50: 74.1 µM (inactive)
UO-31
  GI50: > 100 µM (inactive)
SW-620
  GI50: > 100 µM (inactive)
HT-29
  GI50: > 100 µM (inactive)
XF498
  GI50: > 100 µM (inactive)
A498
  GI50: > 100 µM (inactive)
DMS-273
  GI50: > 100 µM (inactive)
U-251
  GI50: > 100 µM (inactive)
SR
  GI50: > 100 µM (inactive)
SK-OV-3
  GI50: > 100 µM (inactive)
SK-MEL-28
  GI50: > 100 µM (inactive)
NCI-H226
  GI50: > 100 µM (inactive)
RXF 393
  GI50: > 100 µM (inactive)
HCT-116
  GI50: > 100 µM (inactive)
UACC-257
  GI50: > 100 µM (inactive)
TK-10
  GI50: > 100 µM (inactive)
SF-539
  GI50: > 100 µM (inactive)
K562
  GI50: > 100 µM (inactive)
SNB-19
  GI50: > 100 µM (inactive)
HL-60
  GI50: > 100 µM (inactive)
NCI-H522
  GI50: > 100 µM (inactive)
SN12C
  GI50: > 100 µM (inactive)
Malme-3M
  GI50: > 100 µM (inactive)
LXFL 529
  GI50: > 100 µM (inactive)
SK-MEL-2
  GI50: > 100 µM (inactive)
786-0
  GI50: > 100 µM (inactive)
UACC-62
  GI50: > 100 µM (inactive)
OVCAR-5
  GI50: > 100 µM (inactive)
IGROV-1
  GI50: > 100 µM (inactive)
RPMI-8226
  GI50: > 100 µM (inactive)
HOP-62
  GI50: > 100 µM (inactive)
LOX IMVI
  GI50: > 100 µM (inactive)
OVCAR-4
  GI50: > 100 µM (inactive)
A549
  GI50: > 100 µM (inactive)
OVCAR-8
  GI50: > 100 µM (inactive)
CCRF-CEM
  GI50: > 100 µM (inactive)
MOLT-4
  GI50: > 100 µM (inactive)
CAKI-1
  GI50: > 100 µM (inactive)
OVCAR-3
  GI50: > 100 µM (inactive)
SF-295
  GI50: > 100 µM (inactive)
NCI-H23
  GI50: > 100 µM (inactive)
HCC 2998
  GI50: > 100 µM (inactive)
ACHN
  GI50: > 100 µM (inactive)
NCI-H460
  GI50: > 100 µM (inactive)
M14
  GI50: > 100 µM (inactive)

## N#Cc1c2c(c(Cl)n3c1nc1ccccc13)CCCC2
DLD-1
  GI50: 10.6 µM (inactive)
DMS-114
  GI50: 1.86 µM (inactive)
SK-MEL-5
  GI50: 0.566 µM (active)
SNB-78
  GI50: 3.89 µM (inactive)
SF-268
  GI50: 2.58 µM (inactive)
SNB-75
  GI50: 17.2 µM (inactive)
UO-31
  GI50: 3.06 µM (inactive)
SW-620
  GI50: 1.96 µM (inactive)
HT-29
  GI50: 1.11 µM (active)
XF498
  GI50: 2.14 µM (inactive)
A498
  GI50: 11.4 µM (inactive)
DMS-273
  GI50: 1.09 µM (active)
U-251
  GI50: 3.65 µM (inactive)
SR
  GI50: 2.38 µM (inactive)
SK-OV-3
  GI50: 2.48 µM (inactive)
SK-MEL-28
  GI50: 1.99 µM (inactive)
NCI-H226
  GI50: 1.74 µM (inactive)
RXF 393
  GI50: 0.272 µM (active)
HCT-116
  GI50: 2.75 µM (inactive)
UACC-257
  GI50: 2.05 µM (inactive)
TK-10
  GI50: 2.53 µM (inactive)
SF-539
  GI50: 3.95 µM (inactive)
K562
  GI50: 2.5 µM (inactive)
SNB-19
  GI50: 4.69 µM (inactive)
HL-60
  GI50: 1.66 µM (inactive)
M19-MEL
  GI50: 3.61 µM (inactive)
SN12C
  GI50: 2.09 µM (inactive)
Malme-3M
  GI50: 13.2 µM (inactive)
HCT-15
  GI50: 3.21 µM
SK-MEL-2
  GI50: 2.8 µM (inactive)
786-0
  GI50: 1.77 µM (inactive)
OVCAR-5
  GI50: 18.4 µM (inactive)
IGROV-1
  GI50: 2.69 µM (inactive)
RPMI-8226
  GI50: 1.7 µM (inactive)
HOP-62
  GI50: > 10 µM (inactive)
LOX IMVI
  GI50: 1.9 µM (inactive)
OVCAR-4
  GI50: 4.35 µM (inactive)
A549
  GI50: 4.25 µM (inactive)
OVCAR-8
  GI50: 2.57 µM (inactive)
MOLT-4
  GI50: 3.89 µM (inactive)
EKVX
  GI50: 17.8 µM (inactive)
CAKI-1
  GI50: 2.76 µM (inactive)
OVCAR-3
  GI50: 6.5 µM (inactive)
SF-295
  GI50: 4.83 µM (inactive)
NCI-H23
  GI50: 4.54 µM (inactive)
KM-20L2
  GI50: 2.49 µM (inactive)
COLO 205
  GI50: 5.12 µM (inactive)
HCC 2998
  GI50: 16.4 µM (inactive)
ACHN
  GI50: 3.56 µM (inactive)
NCI-H460
  GI50: 1.69 µM (inactive)
M14
  GI50: 3.45 µM (inactive)
